{
  "source": "patent US20250099455A1",
  "about": "“TREATMENT FOR CONGESTIVE HEART FAILURE” (FibroGen, Inc., priority 2022, published 2025)",
  "system": "myocardial ischemia-induced heart failure (HFrEF)",
  "experiment": "Rat model of ischemic HFrEF, Formula I and empagliflozin alone and in combination",
  "type": "in vivo",
  "method": "• Male Sprague Dawley rats • Ligation of left coronary artery for 30 minutes followed by reperfusion • Post-ligation recovery for 28 days • Cardiac function 28 days after ischemia-reperfusion using a Millar pressure-volume catheter inserted in the left ventricle via the carotid artery • Record pressure-volume loops over several cardiac cycles and derived cardiac function parameters A) Rat Model of Ischemic Heart Failure with Reduced Ejection Fraction (HFrEF)",
  "data": [
    {"smiles": "OC[C@H]1O[C@@H](c2ccc(Cl)c(Cc3ccc(O[C@H]4CCOC4)cc3)c2)[C@H](O)[C@@H](O)[C@@H]1O", "note": "[empagliflozin, reference compound]", "values": [
      {"measurement": "improvement in ejection fraction", "result": "~30", "unit": "%"},
      {"measurement": "improvement in end systolic volume", "result": "~30", "unit": "%"}
    ]}
  ]
}
